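Interpolation was linear, between the two tested concentrations surrounding the appropriate level; five concentrations were tested over 48 hours in 96-well plates. At the GI50, growth is halved. At the TGI there is no net growth.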
What was measured:
Assay in all cases: NCI anticancer screen, dose series, 48 h
SF-295 CNS = tested on: SF-295 CNS
HOP-92 NSCLC = tested on: HOP-92 NSCLC
HOP-62 NSCLC = tested on: HOP-62 NSCLC
SN12C renal = tested on: SN12C renal
HCT-116 colon = tested on: HCT-116 colon
SK-MEL-5 melanoma = tested on: SK-MEL-5 melanoma
EKVX NSCLC = tested on: EKVX NSCLC
UACC-62 melanoma = tested on: UACC-62 melanoma
TK-10 renal = tested on: TK-10 renal
MDA-MB-435 = tested on: MDA-MB-435
NCI-H23 lung = tested on: NCI-H23 lung
HS 578T breast = tested on: HS 578T breast
HT29 colon = tested on: HT29 colon
SF-268 CNS = tested on: SF-268 CNS
HCT-15 colon = tested on: HCT-15 colon
HCC-2998 colon = tested on: HCC-2998 colon
NCI/ADR-RES ovarian = tested on: NCI/ADR-RES ovarian
BT-549 breast = tested on: BT-549 breast
HL-60(TB) leukemia = tested on: HL-60(TB) leukemia
NCI-H460 lung = tested on: NCI-H460 lung
T-47D breast = tested on: T-47D breast
DU-145 prostate = tested on: DU-145 prostate
SW-620 colon = tested on: SW-620 colon
COLO 205 colon = tested on: COLO 205 colon
OVCAR-8 ovarian = tested on: OVCAR-8 ovarian
OVCAR-3 ovarian = tested on: OVCAR-3 ovarian
A498 renal = tested on: A498 renal
RXF 393 renal = tested on: RXF 393 renal
NCI-H226 lung = tested on: NCI-H226 lung
SK-OV-3 ovarian = tested on: SK-OV-3 ovarian
MOLT-4 leukemia = tested on: MOLT-4 leukemia
MDA-MB-231 breast = tested on: MDA-MB-231 breast
UO-31 renal = tested on: UO-31 renal
SK-MEL-2 melanoma = tested on: SK-MEL-2 melanoma
SK-MEL-28 melanoma = tested on: SK-MEL-28 melanoma
LOX IMVI melanoma = tested on: LOX IMVI melanoma
IGROV1 ovarian = tested on: IGROV1 ovarian
SF-539 CNS = tested on: SF-539 CNS
MCF7 breast = tested on: MCF7 breast
RPMI-8226 leukemia = tested on: RPMI-8226 leukemia
KM12 colon = tested on: KM12 colon
SNB-75 CNS = tested on: SNB-75 CNS
MALME-3M melanoma = tested on: MALME-3M melanoma
UACC-257 melanoma = tested on: UACC-257 melanoma
A549 NSCLC = tested on: A549 NSCLC
SNB-19 CNS = tested on: SNB-19 CNS
CAKI-1 renal = tested on: CAKI-1 renal
OVCAR-5 ovarian = tested on: OVCAR-5 ovarian
PC-3 prostate = tested on: PC-3 prostate
NCI-H522 lung = tested on: NCI-H522 lung
OVCAR-4 ovarian = tested on: OVCAR-4 ovarian
CCRF-CEM leukemia = tested on: CCRF-CEM leukemia
ACHN renal = tested on: ACHN renal
U251 CNS = tested on: U251 CNS
786-0 renal = tested on: 786-0 renal
M14 melanoma = tested on: M14 melanoma

For `CC1(C)CCC2(CC1)N[C@@H](C(=O)N[C@@H]1CC[C@@H](C(N)=O)OC1)[C@H](c1ccnc(Cl)c1F)[C@]21C(=O)Nc2cc(Cl)ccc21`, the GI50 (SF-295 CNS) was 2.14 µM, the TGI (SF-295 CNS) was 5.04 µM and the GI50 (HOP-92 NSCLC) was 1.78 µM. For the same compound, the TGI (HOP-92 NSCLC) was 4.79 µM, the GI50 (HOP-62 NSCLC) was 2.31 µM and the TGI (HOP-62 NSCLC) was 7.83 µM. The GI50 (SN12C renal) was 3.13 µM, the TGI (SN12C renal) was 12 µM and the GI50 (HCT-116 colon) was 0.07 µM. The TGI (HCT-116 colon) was 6.96 µM, the GI50 (SK-MEL-5 melanoma) was 0.743 µM and the TGI (SK-MEL-5 melanoma) was 2.17 µM. The GI50 (EKVX NSCLC) was 2.38 µM, the TGI (EKVX NSCLC) was 7.6 µM and the GI50 (UACC-62 melanoma) was 0.0556 µM. The TGI (UACC-62 melanoma) was 2.05 µM, the GI50 (TK-10 renal) was 3.13 µM and the TGI (TK-10 renal) was 15.7 µM. The GI50 (MDA-MB-435) was 2.44 µM, the TGI (MDA-MB-435) was 6.22 µM and the GI50 (NCI-H23 lung) was 3.73 µM. For the same compound, the TGI (NCI-H23 lung) was 15.4 µM, the GI50 (HS 578T breast) was 2.33 µM and the TGI (HS 578T breast) was 10.4 µM. For the same compound, the GI50 (HT29 colon) was 2.22 µM, the TGI (HT29 colon) was 6.01 µM and the GI50 (SF-268 CNS) was 3.5 µM. The TGI (SF-268 CNS) was 19.1 µM, the GI50 (HCT-15 colon) was 2.88 µM and the TGI (HCT-15 colon) was 10.1 µM. The GI50 (HCC-2998 colon) was 1.7 µM, the TGI (HCC-2998 colon) was 3.21 µM and the GI50 (NCI/ADR-RES ovarian) was 16.3 µM. It also gave a TGI (NCI/ADR-RES ovarian) of 45.5 µM, a GI50 (BT-549 breast) of 2.45 µM and a TGI (BT-549 breast) of 7.52 µM. The GI50 (HL-60(TB) leukemia) was 2.36 µM, the TGI (HL-60(TB) leukemia) was 5.59 µM and the GI50 (NCI-H460 lung) was 0.179 µM. It also gave a TGI (NCI-H460 lung) of 2.05 µM, a GI50 (T-47D breast) of 2.58 µM and a TGI (T-47D breast) of 7.85 µM. For the same compound, the GI50 (DU-145 prostate) was 3.94 µM, the TGI (DU-145 prostate) was 16.1 µM and the GI50 (SW-620 colon) was 3.81 µM. For the same compound, the TGI (SW-620 colon) was 23.1 µM, the GI50 (COLO 205 colon) was 2.11 µM and the TGI (COLO 205 colon) was 5.39 µM. The GI50 (OVCAR-8 ovarian) was 3.92 µM, the TGI (OVCAR-8 ovarian) was 27.7 µM and the GI50 (OVCAR-3 ovarian) was 2.75 µM. The TGI (OVCAR-3 ovarian) was 8.2 µM, the GI50 (A498 renal) was 0.111 µM and the TGI (A498 renal) was 3.95 µM. For the same compound, the GI50 (RXF 393 renal) was 2.26 µM, the TGI (RXF 393 renal) was 5.67 µM and the GI50 (NCI-H226 lung) was 0.0935 µM. For the same compound, the TGI (NCI-H226 lung) was 0.804 µM, the GI50 (SK-OV-3 ovarian) was 3 µM and the TGI (SK-OV-3 ovarian) was 9.27 µM. The GI50 (MOLT-4 leukemia) was 0.107 µM, the TGI (MOLT-4 leukemia) was 3.13 µM and the GI50 (MDA-MB-231 breast) was 1.92 µM. It also gave a TGI (MDA-MB-231 breast) of 3.98 µM, a GI50 (UO-31 renal) of 0.261 µM and a TGI (UO-31 renal) of 3.04 µM. The GI50 (SK-MEL-2 melanoma) was 2.16 µM, the TGI (SK-MEL-2 melanoma) was 5.02 µM and the GI50 (SK-MEL-28 melanoma) was 1.95 µM. The TGI (SK-MEL-28 melanoma) was 4.06 µM, the GI50 (LOX IMVI melanoma) was 0.124 µM and the TGI (LOX IMVI melanoma) was 2 µM. It also gave a GI50 (IGROV1 ovarian) of 0.793 µM, a TGI (IGROV1 ovarian) of 6.13 µM and a GI50 (SF-539 CNS) of 1.93 µM. For the same compound, the TGI (SF-539 CNS) was 4.66 µM, the GI50 (MCF7 breast) was 0.037 µM and the TGI (MCF7 breast) was 2.28 µM. The GI50 (RPMI-8226 leukemia) was 2.12 µM, the TGI (RPMI-8226 leukemia) was 5.57 µM and the GI50 (KM12 colon) was 2.39 µM. The TGI (KM12 colon) was 6.23 µM, the GI50 (SNB-75 CNS) was 2.17 µM and the TGI (SNB-75 CNS) was 9.38 µM. For the same compound, the GI50 (MALME-3M melanoma) was 0.0482 µM, the TGI (MALME-3M melanoma) was 2.03 µM and the GI50 (UACC-257 melanoma) was 0.19 µM. For the same compound, the TGI (UACC-257 melanoma) was 2.53 µM, the GI50 (A549 NSCLC) was 0.26 µM and the TGI (A549 NSCLC) was 13.1 µM. The GI50 (SNB-19 CNS) was 3.38 µM, the TGI (SNB-19 CNS) was 15.2 µM and the GI50 (CAKI-1 renal) was 0.0622 µM. It also gave a TGI (CAKI-1 renal) of 4.15 µM, a GI50 (OVCAR-5 ovarian) of 2.15 µM and a TGI (OVCAR-5 ovarian) of 5.9 µM. It also gave a GI50 (PC-3 prostate) of 2.26 µM, a TGI (PC-3 prostate) of 6.25 µM and a GI50 (NCI-H522 lung) of 2.01 µM. It also gave a TGI (NCI-H522 lung) of 4.46 µM, a GI50 (OVCAR-4 ovarian) of 3.19 µM and a TGI (OVCAR-4 ovarian) of 14.1 µM. For the same compound, the GI50 (CCRF-CEM leukemia) was 3.01 µM, the TGI (CCRF-CEM leukemia) was 13.3 µM and the GI50 (ACHN renal) was 0.139 µM. For the same compound, the TGI (ACHN renal) was 2.28 µM, the GI50 (U251 CNS) was 2.8 µM and the TGI (U251 CNS) was 9.64 µM. For the same compound, the GI50 (786-0 renal) was 2.77 µM, the TGI (786-0 renal) was 8.51 µM and the GI50 (M14 melanoma) was 2.14 µM. For the same compound, the TGI (M14 melanoma) was 5.63 µM.
